The text below walks through data of patent US7977403B2, “Antiseptic containing silicone elastomers” (Bayer Innovation GmbH, priority 2006, dated 2011).

This data set has as its system L 929 mouse fibroblast cells. Put plainly: Biocompatibility (cytotoxicity) test of material extract, DIN ISO 10993-5. It is filed as cell-based. The conditions noted are these: final concentration 1%, 48 h. How it is done:
Biocompatibility Tests as Specified in DIN ISO 10993-5 (1999), EN 30993-5 (1994) The catheter shafts from Example 13 were for this purpose extracted non-sterile at 37° C. and 5% pCO2 in extraction medium (DMEM including antibiotics without FCS) for 24 h. The surface-volume ratio was 1 cm^2/ml of extraction medium. After completion of the extraction, the extraction medium was sterilized by filtration and supplemented with sterile FCS (final concentration: 10% FCS in the extraction medium). The FCS-supplemented extraction medium was put sterile on precultured L 929 mouse fibroblast cells and incubated at 37° C., 5% pCO2 for 48 h. The extract was subjected to quadruplicate parallel testing. Triton X 100 was added to the L929 cells used as toxic positive control (final concentration 1%). Cell culture medium served as non-toxic negative control. After the 48-hour incubation, the release of lactate dehydrogenase (LDH) in the cell culture supernatant was measured by a photometric method. The cells were then subjected to alkaline lysis and the protein content was measured by the Bradford method. The cells were fixed and stained with methylene blue to determine the cell count. After acidic extraction of the methylene blue, the dye content was ascertained by photometry and the extinction was compared with a standard curve in order to determine the cell count on the basis of the dye concentration. Results are shown at FIG. 12.

On to Triton X 100, for which the “Protein content relative to negative control” value (Bradford method) is given as 6.8 % of the negative control value. In addition, the “Specific LDH activity increase compared with the negative control” value (cell culture supernatant) is “more than 31 fold”. Moreover, where the note is “methylene blue”, the “Cell count relative to negative control” value is 0.5 % of the negative control value.
